Key:
[1] = tested on: HT-29 colon adenocarcinoma cells; experiment: O2- production by HT-29 cells (SOD inhibitable reduction of cytochrome c); format: cell-based; conditions: increasing doses
[2] = target: T1, Nox5 (Homo sapiens, UniProt Q96PH1); experiment: O2- production by lysates of HEK293 cells stably transfected with Nox5 oxidase, Ca2+-stimulated (cytochrome c); format: cell-based; conditions: 0.1 nM to 10,000 nM
T1 construct: expressed in transfected cells; cell lysates
T1 sequence (Q96PH1 1-765): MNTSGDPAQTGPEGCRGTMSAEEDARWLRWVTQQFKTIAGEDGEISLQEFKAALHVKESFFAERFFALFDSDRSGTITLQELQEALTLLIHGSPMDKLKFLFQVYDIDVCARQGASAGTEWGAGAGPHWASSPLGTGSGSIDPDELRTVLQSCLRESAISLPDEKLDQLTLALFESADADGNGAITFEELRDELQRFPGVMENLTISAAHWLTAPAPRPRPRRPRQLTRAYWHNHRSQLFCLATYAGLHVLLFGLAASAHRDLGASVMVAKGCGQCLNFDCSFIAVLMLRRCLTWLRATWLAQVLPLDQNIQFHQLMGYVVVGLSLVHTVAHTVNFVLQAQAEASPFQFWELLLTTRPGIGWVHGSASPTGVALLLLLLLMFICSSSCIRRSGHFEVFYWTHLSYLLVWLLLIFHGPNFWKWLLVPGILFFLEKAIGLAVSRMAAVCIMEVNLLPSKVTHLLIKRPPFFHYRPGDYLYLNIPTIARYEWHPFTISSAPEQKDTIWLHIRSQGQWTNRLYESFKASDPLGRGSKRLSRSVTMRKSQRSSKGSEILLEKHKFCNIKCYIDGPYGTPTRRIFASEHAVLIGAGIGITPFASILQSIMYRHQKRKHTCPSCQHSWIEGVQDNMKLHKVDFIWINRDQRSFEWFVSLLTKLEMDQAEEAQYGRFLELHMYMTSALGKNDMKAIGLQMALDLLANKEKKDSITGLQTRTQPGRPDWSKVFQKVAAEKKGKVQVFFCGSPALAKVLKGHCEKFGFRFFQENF
Procedure: (§1) To test whether the inhibitory effect of NoxA1ds is specific to Nox1, the effect of NoxA1ds was tested on cells expressing Nox2, Nox4, and Nox5 as well as on purified xanthine oxidase enzyme. To test the effect on Nox2, production of O2^− was measured by the reduction of cytochrome c by cell lysates from COS cells transiently transfected with the Nox2 oxidase, stimulated with LiDS, and the treated with increasing concentrations of NoxA1ds (from 0.1 nM to 10,000 nM). Similarly, production of H2O2 was measured by Amplex red fluorescence by COS cells transiently transfected with the Nox4 oxidase and treated with increasing concentrations of NoxA1ds (from 100 nM to 10,000 nM). Production of O2^− was also measured by the reduction of cytochrome c by cell lysates from HEK293 cells stably transfected with the Nox5 oxidase stimulated with Ca^2+, and treated with increasing concentrations of NoxA1ds (from 0.1 nM to 10,000 nM). Finally, production of O2^− was measured by Electron Paramagnetic Resonance from pure xanthine oxidase enzyme preparations, stimulated with hypoxanthine and treated with increasing concentrations of NoxA1ds (from 0.1 nM to 10,000 nM).

[3] = tested on: xanthine oxidase; experiment: O2- production by pure xanthine oxidase stimulated with hypoxanthine (EPR); format: biochemical; conditions: 0.1 nM to 10,000 nM
Procedure: as §1

[4] = tested on: Nox1-YFP; experiment: Image cross correlation spectroscopy (ICCS) of R-NoxA1ds and Nox1-YFP; format: binding; conditions: unlabelled competitor
Procedure: An ELISA of Nox1:NoxA1ds interaction was performed as follows. Neutravidin coated plates were incubated with biotin-tagged NoxA1ds (Biotin-NoxA1ds) or biotin-tagged SCRMB (Biotin-SCRMB) before addition of cell membranes prepared from cells transfected with Nox1 (Nox1 membrane) or transfected with an empty vector (COS22 membrane). Bound Nox1 was detected through a FITC conjugated secondary antibody (αRabbit Ab Sigma F9887) bound to the Nox1 primary antibody (rabbit αNox1 Ab (SC-25545, Santa Cruz Biotechnology)). FITC fluorescence was expressed as binding as % COS22 membranes on each experimental day. […] To further confirm the association, image cross correlation spectroscopy (ICCS) was used to determine patterns in signal fluctuation between rhodamine-labeled NoxA1ds (R-NoxA1ds) and Nox1-YFP though a sequence of 100 images 0.05 s apart. Correlation and cross-correlation was calculated using an ImageJ plugin.

[5] = target: T2, Nox2 (Homo sapiens, UniProt P04839); experiment: O2- production by lysates of COS cells transfected with Nox2 oxidase, LiDS-stimulated (cytochrome c); format: cell-based; conditions: 0.1 nM to 10,000 nM
T2 construct: expressed in transfected cells; host or cells: COS22 / COS cells, transient transfection; cell lysates
T2 sequence (P04839 2-570 limits assumed): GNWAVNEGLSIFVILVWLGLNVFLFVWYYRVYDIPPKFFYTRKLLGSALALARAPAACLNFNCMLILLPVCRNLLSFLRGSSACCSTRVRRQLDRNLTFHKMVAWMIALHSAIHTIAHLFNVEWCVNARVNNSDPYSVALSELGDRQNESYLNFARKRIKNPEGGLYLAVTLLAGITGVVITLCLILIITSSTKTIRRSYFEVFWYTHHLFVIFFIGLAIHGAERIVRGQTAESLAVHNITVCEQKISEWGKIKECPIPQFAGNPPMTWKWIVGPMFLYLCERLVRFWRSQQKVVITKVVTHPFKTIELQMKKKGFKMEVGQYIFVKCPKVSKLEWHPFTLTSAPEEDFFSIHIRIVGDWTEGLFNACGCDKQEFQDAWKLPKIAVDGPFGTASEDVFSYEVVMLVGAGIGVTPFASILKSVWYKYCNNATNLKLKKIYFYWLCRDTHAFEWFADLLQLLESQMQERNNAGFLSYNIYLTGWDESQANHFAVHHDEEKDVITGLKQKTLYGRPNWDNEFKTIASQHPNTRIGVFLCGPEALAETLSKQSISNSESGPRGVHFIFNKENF
T2 sequence (P13498 1-195 partner): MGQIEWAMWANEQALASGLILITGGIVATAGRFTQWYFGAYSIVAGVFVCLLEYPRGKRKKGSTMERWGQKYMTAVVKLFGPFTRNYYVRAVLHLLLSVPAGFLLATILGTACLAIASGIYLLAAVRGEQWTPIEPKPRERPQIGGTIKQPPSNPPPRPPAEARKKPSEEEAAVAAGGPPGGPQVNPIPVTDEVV
Procedure: as §1

[6] = tested on: HPAEC constitutively expressing Nox1; experiment: Angiotensin II-induced O2- production by HPAEC (cytochrome c); format: cell-based, human; conditions: 100 nM angiotensin II, 10 μM peptide, 1 hr
Procedure: FIG. 10. O2^− Production by human pulmonary artery endothelial cells (“HPAEC”) which were either (i) untreated; (ii) treated with 100 nM angiotensin II; (iii) treated with 100 nM angiotensin II and 10 μM NoxA1ds; or (iv) treated with 100 nM angiotensin II and 10 μM SCRMB peptide. Results represent mean±SEM, n=5-9, 2-3 separate experiments.
In further studies, HPAEC constitutively expressing Nox1 were treated with vehicle or Angiotensin II (AngII, one mediator of hypertension) alone or in combination with NoxA1ds, or SCRMB for 1 hr. O2^− production was then measured via reduction of cytochrome c.

H-EPVDALGKAKV-NH2 [NoxA1ds, [NH3^+]-EPVDALGKAKV-[CONH2]]
Inhibition of O2- production by HT-29 cells [1]: dose-dependent inhibition | Inhibitory effect on Nox5 O2- production [2]: did not exhibit a significant inhibitory effect | Inhibitory effect on xanthine oxidase O2- production [3]: did not exhibit a significant inhibitory effect | Effect of competition with R-NoxA1ds on fractional binding [4]: significantly reduced the fractional binding | Inhibitory effect on Nox2 O2- production [5]: did not exhibit a significant inhibitory effect | AngII-induced O2- production [6]: completely inhibited

Source: patent US9770481B2, “Inhibitors of NOX1” (UNIVERSITY OF PITTSBURGH—OF THE COMMONWEALTH SYSTEM OF …, priority 2011, dated 2017)
